From patent US8071586B2, “Heterocyclyl compounds” (Hoffmann-La Roche Inc., priority 2008, dated 2011)

These compounds were tested against T1, human chemokine receptor 2 isoform B (CCR2) (Homo sapiens, UniProt P41597) (assay: Calcium mobilization assay (FLIPR, MCP-1 stimulated CHOK1-CCR2B-A5 cells)). Details: Ca mobilisation assay, CCR2 antagonist activity, inhibition of MCP-1 induced calcium increase.
T1 sequence (P41597 1-360 isoform P41597-2): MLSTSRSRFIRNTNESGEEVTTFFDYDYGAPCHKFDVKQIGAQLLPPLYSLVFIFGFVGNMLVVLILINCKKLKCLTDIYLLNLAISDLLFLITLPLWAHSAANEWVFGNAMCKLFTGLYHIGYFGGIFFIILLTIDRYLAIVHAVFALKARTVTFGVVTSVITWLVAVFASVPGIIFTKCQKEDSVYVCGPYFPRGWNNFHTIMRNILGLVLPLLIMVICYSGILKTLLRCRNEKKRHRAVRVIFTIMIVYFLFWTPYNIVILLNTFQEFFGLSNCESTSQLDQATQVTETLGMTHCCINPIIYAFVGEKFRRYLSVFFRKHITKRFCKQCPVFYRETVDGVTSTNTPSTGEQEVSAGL
Assay type: cell-based
Outline: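 Fluo-4-loaded CHOK1 cells stably expressing human CCR2B were preincubated with compound 20-30 min at 30 °C in DMEM/Hepes/probenecid/0.1% BSA buffer with 0.5% DMSO, then challenged with […] MCP-1. FLIPR calcium signal (max minus basal) gave IC50; agonism also monitored.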

Structure (SMILES)	IC50
C[C@H]1C[C@H](O)CN(CCCN2CCN(C(=O)Nc3ccc(Cl)c(Cl)c3)[C@@H](C)C2=O)C1 [Example 46, (S)-4-[3-((3S,5S)-3-Hydroxy-5-methyl-piperidin-1-yl)-propyl]-2-methyl-3-oxo-piperazine-1-carboxylic acid (3,4-dichloro-phenyl)-amide]	7 nM
Cc1ccc(NC(=O)N2CCC(=O)N(CCCN3CCC4(CC4)[C@H](O)C3)C[C@H]2C)cc1C [Example 61, (R)-4-[3-((S)-4-Hydroxy-6-aza-spiro[2.5]oct-6-yl)-propyl]-2-methyl-5-oxo-[1,4]diazepane-1-carboxylic acid (3,4-dimethyl-phenyl)-amide]	210 nM
C[C@H]1C(=O)N(C[C@H](O)CN2CCC3(CC3)[C@H](O)C2)CCN1C(=O)Nc1ccc(Cl)c(Cl)c1 [Example 122, (S)-4-[(R)-2-Hydroxy-3-((S)-4-hydroxy-6-aza-spiro[2.5]oct-6-yl)-propyl]-2-methyl-3-oxo-piperazine-1-carboxylic acid (3,4-dichloro-phenyl)-amide]	23 nM
C[C@H]1C(=O)N(CCCN2CCC[C@@H](O)C2)CCN1C(=O)Nc1ccc(Cl)c(Cl)c1 [Example 48, (S)-4-[3-((R)-3-Hydroxy-piperidin-1-yl)-propyl]-2-methyl-3-oxo-piperazine-1-carboxylic acid (3,4-dichloro-phenyl)-amide]	370 nM
COC(=O)C(CCN1CCC2(CC2)[C@H](O)C1)N1CCN(C(=O)Nc2cccc(Cl)c2)CCC1=O (stereo partly drawn) [Example 1, (R,S)-2-[4-(3-Chloro-phenylcarbamoyl)-7-oxo-[1,4]diazepan-1-yl]-4-((S)-4-hydroxy-6-aza-spiro[2.5]oct-6-yl)-butyric acid methyl ester]	470 nM
C[C@H]1C(=O)N(C[C@@H](O)CN2CCC3(CC3)[C@H](O)C2)CCN1C(=O)Nc1cccc(Cl)c1 [Example 121, (S)-4-[(S)-2-Hydroxy-3-((S)-4-hydroxy-6-aza-spiro[2.5]oct-6-yl)-propyl]-2-methyl-3-oxo-piperazine-1-carboxylic acid (3-chloro-phenyl)-amide]	6 nM
COCC(CCN1CCC2(CC2)[C@H](O)C1)N1CC(C)N(C(=O)Nc2cccc(Cl)c2)CCC1=O (stereo in doubt) [Example 65, (R)-4-[(S)-3-((S)-4-Hydroxy-6-aza-spiro[2.5]oct-6-yl)-1-methoxymethyl-propyl]-2-methyl-5-oxo-[1,4]diazepane-1-carboxylic acid (3-chloro-phenyl)-amide]	21 nM
COCC(CCN1CCC2(CC2)[C@H](O)C1)N1CCN(C(=O)Nc2ccc(Cl)c(Cl)c2)CCC1=O (stereo partly drawn) [Example 55, (R,S)-4-[3-((S)-4-Hydroxy-6-aza-spiro[2.5]oct-6-yl)-1-methoxymethyl-propyl]-5-oxo-[1,4]diazepane-1-carboxylic acid (3,4-dichloro-phenyl)-amide]	4 nM
COCC(CCN1CCC2(CC2)[C@H](O)C1)N1CCN(C(=O)Oc2ccc(Cl)c(Cl)c2)CCC1=O (stereo partly drawn) [Example 7, (R,S)-4-[3-((S)-4-Hydroxy-6-aza-spiro[2.5]oct-6-yl)-1-methoxymethyl-propyl]-5-oxo-[1,4]diazepane-1-carboxylic acid 3,4-dichloro-phenyl ester]	370 nM
COCC(CCN1CCC2(CC2)[C@H](O)C1)N1CCN(C(=O)NCc2ccc(Cl)c(Cl)c2)CCC1=O (stereo partly drawn) [Example 6, (R,S)-4-[3-((S)-4-Hydroxy-6-aza-spiro[2.5]oct-6-yl)-1-methoxymethyl-propyl]-5-oxo-[1,4]diazepane-1-carboxylic acid 3,4-dichloro-benzylamide]	840 nM
C[C@H]1C(=O)N(CCCN2CCCCC2)CCN1C(=O)Nc1ccc(F)c(Cl)c1 [Example 42, (S)-2-Methyl-3-oxo-4-(3-piperidin-1-yl-propyl)-piperazine-1-carboxylic acid (3-chloro-4-fluoro-phenyl)-amide]	110 nM

Second part, the compound after the results:

IC50	Structure (SMILES)
2 nM	C[C@H]1C(=O)N(CCCN2CCC3(CC3)[C@H](O)C2)CCN1C(=S)Nc1ccc(Cl)c(Cl)c1 [Example 71, (S)-4-[3-((S)-4-Hydroxy-6-aza-spiro[2.5]oct-6-yl)-propyl]-2-methyl-3-oxo-piperazine-1-carbothioic acid (3,4-dichloro-phenyl)-amide]
1 nM	C[C@H]1C(=O)N(CCCCN2CCC3(CC3)[C@H](O)C2)CCN1C(=O)Nc1ccc(Cl)c(Cl)c1 [Example 90, (S)-4-[4-((S)-4-Hydroxy-6-aza-spiro[2.5]oct-6-yl)-butyl]-2-methyl-3-oxo-piperazine-1-carboxylic acid (3,4-dichloro-phenyl)-amide]
24 nM	C[C@H]1C(=O)N(CCCCN2CCC3(CC3)[C@H](O)C2)CCN1C(=O)Nc1ccc(C(F)(F)F)cn1 [Example 99, (S)-4-[4-((S)-4-Hydroxy-6-aza-spiro[2.5]oct-6-yl)-butyl]-2-methyl-3-oxo-piperazine-1-carboxylic acid (5-trifluoromethyl-pyridin-2-yl)-amide]
2 nM	C[C@H]1C(=O)N(CCCCN2CCC3(CC3)[C@H](O)C2)CCN1C(=O)Nc1cccc(-c2ccccc2)c1 [Example 93, (S)-4-[4-((S)-4-Hydroxy-6-aza-spiro[2.5]oct-6-yl)-butyl]-2-methyl-3-oxo-piperazine-1-carboxylic acid biphenyl-3-ylamide]
64 nM	C[C@H]1C(=O)N(CCCN2CCC3(CC3)[C@H](O)C2)CCN1C(=O)Nc1ccccc1 [Example 74, (S)-4-[3-((S)-4-Hydroxy-6-aza-spiro[2.5]oct-6-yl)-propyl]-2-methyl-3-oxo-piperazine-1-carboxylic acid phenylamide]
624 nM	C[C@H]1C(=O)N(CCCCN2CCC3(CC3)[C@H](O)C2)CCN1C(=S)Oc1ccc2ccccc2c1 [Example 92, (S)-4-[4-((S)-4-Hydroxy-6-aza-spiro[2.5]oct-6-yl)-butyl]-2-methyl-3-oxo-piperazine-1-carbothioic acid O-naphthalen-2-yl ester]
382 nM	C[C@H]1C(=O)N(CCN2CCC3(CC3)[C@H](O)C2)CCN1C(=O)Nc1ccc(Cl)c(Cl)c1 [Example 104, (S)-4-[2-((S)-4-Hydroxy-6-aza-spiro[2.5]oct-6-yl)-ethyl]-2-methyl-3-oxo-piperazine-1-carboxylic acid (3,4-dichloro-phenyl)-amide]
